In patent US20220128542A1, “TREATMENT EFFICIENCY EVALUATION” (TX MEDIC AB, priority 2019, published 2022):

Tested on: Mouse cortical neurons
Experiment: Gene expression array and pathway analysis in cortical neurons (Example 2)
Format: cell-based
Settings: for differentially expressed genes: cortical neuron section (printed motor neurons)
Experimental: For each cell line, n=8×25 cm^2 culture flasks were set up. Two flasks were harvested for each cell type on the day of treatment (24 hours after seeding). This represents the Day0 time point. From the remaining flasks, three flasks were treated with Control Medium and three were treated with Culture Medium (CM) containing LMW-DS to give a final concentration of 0.01 mg/ml. Cells from the treated flasks were collected after 48 hours. Therefore the collected data represent (a) untreated cells (Day0 Controls and Day2 Controls) and (b) cells treated with LMW-DS for 48 hours (Day2 LMW-DS treated).
25 cm^2 flasks were coated by adding 2 ml per flask of a solution of 50 μg/ml poly-d-lysine in Hank's balanced salt solution (HBSS) and incubating overnight at 37° C. in the dark. Flasks were washed with cell culture water and air-dried for 30 min in the dark. Flasks were coated by adding 1 ml per flask of a solution of 25 μg/ml laminin in phosphate-buffered saline (PBS) and incubating for 2 hour at 37° C. in the dark. The laminin flasks were washed with PBS three times before plating cells.
Medium was prepared by adding 10 ml B-27 Serum-Free Supplement and 2.5 ml GlutaMAX™-I Supplement to 500 ml of Neurobasal medium. The medium was pre-warmed to 37° C. Cells from 12 vials were thawed sequentially in a 37° C. water bath for no longer than 2 min and gently transferred into a 15 ml tube. 9 ml of medium was gently added drop-wise to each. The cell suspension was mixed by inverting the tubes carefully twice.
The cells were centrifuged for 5 minutes at 200×g. Supernatant was removed (to the last 0.5 ml) and cells were gently re-suspended by trituration. The cells from the 12 vials were mixed and distributed equally into the previously coated 25 cm^2 flasks (n=8). Cells were incubated at 37° C. with 5% CO2 for 24 hours.
A fresh 100× LMW-DS stock (1.0 mg/ml) was prepared in sterile DMEM-F12. The concentrated drug stock was sterile filtered and added to the respective culture media (19.6 ml CM and 0.4 ml LMW-DS stock solution). The Control was made using 19.6 ml CM and 0.4 ml of DMEM-F12. LMW-DS and CM were added to the respective flasks (5 ml each) to reach the 0.01 mg/ml concentration of LMW-DS in each dish with a total of 10 ml CM each.
CM was aspirated into a clean and labelled 15 ml Falcon tube. The flasks (without culture medium) were placed into the −80° C. freezer for 30 minutes. The CM in the Falcon tubes was spun at 3000×g for 5 minutes. Supernatant was removed and the small pellet was re-suspended in 2.5 ml Trizol:Water (4:1) solution at room temperature (RT, ˜22° C.).
The frozen flasks were removed one-by one from the freezer and the Trizol-Water from the appropriate tubes was moved to the flask. Flasks were left at RT for 5 minutes before the content was aspirated back into the 15 ml Falcon tube (after washing the bottom of the flask with the solution thoroughly). The flasks were inspected under the microscope to ensure full removal of cells. The collected lysates in the 15 ml Falcon tubes were placed into the −80° C. freezer.
Falcon tubes containing the homogenates were removed from the freezer and stored for 5 minutes at RT to permit the complete dissociation of nucleoprotein complexes.
Two aliquots of 1 ml lysate were removed from each sample and 200 μl of chloroform was added to each (0.2 ml of chloroform per 1 ml of TRIzol Reagent used during the cell lysis step) and the tube was shaken vigorously. Samples were stored at RT for 2-3 minutes and subsequently centrifuged at 12,000×g for 15 minutes at 4° C.
The mixture separated into three layers: a lower red phenol-chloroform phase, an interphase and a colorless upper aqueous phase. The RNA remained in the top aqueous phase, DNA in the white middle (interphase) phase and protein in the pink bottom (organic) phase. The top ¾ of the aqueous phase was transferred to a new clean Eppendorf tube.
The RNA was precipitated from the aqueous phase by adding an equal amount of 100% ethanol. […]

[1] = cortical neurons, 0.01 mg/ml, 48 hours

Substance: sodium salt of dextran sulfate [LMW-DS]
- differentially expressed genes (D0 control vs D2 LMW-DS treated, 0.01 mg/ml): 609 genes
- differentially expressed genes (second comparison, printed as D0 control to D2 LMW-DS treated): 247 genes
- number of genes: no effect / abolished nutrient effect [1]: 572
- number of genes: no effect / new effect induced by LMW-DS [1]: 19
- number of genes: no effect / total [1]: 591
- number of genes: significant downregulation / abolished nutrient effect [1]: 7
- number of genes: significant downregulation / enhanced response to nutrients [1]: 158
- number of genes: significant downregulation / new effect induced by LMW-DS [1]: 22
- number of genes: significant downregulation / not different from control [1]: 95
- number of genes: significant downregulation / total [1]: 282
- number of genes: significant upregulation / abolished nutrient effect [1]: 33
- number of genes: significant upregulation / enhanced response to nutrients [1]: 43
- number of genes: significant upregulation / new effect induced by LMW-DS [1]: 7
- number of genes: significant upregulation / not different from control [1]: 221
- number of genes: significant upregulation / total [1]: 304
- number of genes: total / abolished nutrient effect [1]: 612
- number of genes: total / enhanced response to nutrients [1]: 612
- number of genes: total / new effect induced by LMW-DS [1]: 48
- number of genes: total / not different from control [1]: 316
- number of genes: total / total [1]: 1177
